From patent US12115176B2, “Methods and compositions relating to ClbP inhibition” (PRESIDENT AND FELLOWS OF HARVARD COLLEGE, priority 2021, dated 2024) come the findings set out here.

“Also recorded” adds a separate entry of the source.

For data set [1], the system named is a variety of bacterial strains from common gut phyla, including E. coli. Nature of the data set: Turbidity MIC assay, all strains together. The data set is classed as cell-based. The settings on record: Escherichia coli; all strains tested; upper limit tested 200 μM; read-out: MICs in liquid culture. From the text:
Compound 3 is an inhibitor of colibactin-associated genotoxicity. Since colibactin is produced in the context of the gut microbiota, it is essential to understand how 3 can affect other members of this community and whether it remains an effective inhibitor under these conditions. […] A turbidity assay was used to determine minimum inhibitory concentrations (MICs) in liquid culture of 1-4 against a variety of bacterial strains from common gut phyla, including E. coli (Table 3).
MICs of compounds against different bacterial species were determined using a modified version of a broth microdilution protocol which has been previously reported.^1 Briefly, cultures of each species indicated were inoculated from frozen stocks in deoxygenated Wilkins-Chalgren Anaerobic Medium (WCAM) inside of an anerobic chamber with an 92.5% N2/5% CO2/2.5% H2 atmosphere. Cultures were grown for 24-48 hours in a 37° C. incubator at which point an OD600-measurement was taken for each culture and was accordingly diluted in fresh WCAM to an equivalent of OD600=0.01. Diluted cultures were then distributed into the wells of a clear, flat-bottom 384-well plate and the compound of interest was added to a final DMSO concentration of 2% (or DMSO only for positive controls). […] mineral oil (Millipore Sigma) was deposited on top of the cultures and plates were covered with a clear adhesive plate seal. Plates were incubated at 37° C. for 16 hours, at which point the OD600 of all wells was recorded on a SpectraMax M2 plate reader (Molecular Devices).

Data set [2] has as its system HeLa cells infected with NC101. Nature of the data set: HeLa infection assay with pks+ E. coli, cell cycle analysis by flow cytometry. The data set is classed as cell-based, human. On the procedure: Infection with pks^+ E. coli. Assays for cell-cycle arrest and FANCD2 ubiquitination were performed by seeding 24-well plates with 125,000 HeLa cells per well and incubating those plates under standard conditions for 24 hours. At the same time, cultures of NC101 and NC101ΔclbP were started from frozen stocks in LB broth and grown at 37° C. with shaking overnight. […] Cultures were monitored until an OD600 of 0.3-0.5 was reached. At that point, samples of the cultures were removed and DMSO stock solutions of the inhibitor of interest were added to each sample to a final concentration of 1% DMSO and the concentration of inhibitor indicated.
Media in the 24-well plate was aspirated, HeLa cells were washed with sterile DPBS (Thermo Fisher Scientific), and fresh DMEM+FBS+1% DMSO with the indicated concentration of inhibitor was added. A volume of E. coli equivalent to 2.5×10^7 bacteria based on OD in DMEM+FBS+1% DMSO with the indicated concentration of inhibitor was then added directly to wells (Multiplicity of Infection, MOI 1:100). Infections were carried out for 4 hours at 37° C. in a humidified 5% CO2 incubator. Media was then aspirated and cells were washed with DPBS twice to remove bacteria, and fresh DMEM+FBS+PSF supplemented with 50 μg/mL gentamicin was added.
Cell Cycle Analysis. Between 20 and 24 hours after infection, HeLa cells were trypsinized (0.25% Trypsin-EDTA, Gibco), washed with DPBS, and fixed in cold 70% ethanol and stored at 4° C. until flow cytometry analysis (24-48 hours). Cells were centrifuged at 800×g for 10 minutes and 70% ethanol was aspirated. Cells were resuspended in DPBS for 15 minutes, then centrifuged and supernatant aspirated again. Cells were then resuspended in DPBS with 0.2 mg/mL RNAse A (Invitrogen) and 0.02 mg/mL propidium iodide (Millipore Sigma). After 30 minutes, cells were analyzed on a BD LSR II Analyzer at the Harvard University Bauer Core Flow Cytometry Facility. For each replicate, 10,000 events were collected and results were gated for single cells and plotted using the FloJo™ software package.

Another data set relates to HeLa cells. Nature of the data set: HeLa cell survival assay. The settings on record: all concentrations tested. The data set is classed as cell-based, human. As for the experimental part:
HeLa cells were maintained as described in the General Tissue Culture Methods section. After trypsinization and counting, cells were distributed in to the wells of a 96-well plate with media containing the indicated concentration of the synthetic compound and 1% DMSO (or DMSO alone) at 5000 cells per well. After 20 hours, cell viability was determined using the CellTiter-Glo® 3D Cell Viability Assay kit (Promega) following the manufacturer's instructions and measuring luminescence on a Bio-Tek Synergy HTX™ multimode plate reader.

Data set [3] has as its system purified plasmid DNA incubated with pks+ E. coli. Put plainly: Plasmid DNA crosslinking, denaturing gel electrophoresis. On the procedure: In addition to blocking the metabolic indicators of colibactin biosynthesis, it was also assessed whether 3 could inhibit the genotoxic effects of colibactin on human cells at physiologically accessible concentrations. A previously described infection assay with HeLa cells and pks+E. coli which was modified to include a 1-hour preincubation of the inhibitor with the E. coli as well as inclusion of the inhibitor in the infection medium was used. […] Treatment with 3 was able to completely block this effect at concentrations as low as 5 nM (FIG. 4). It was also confirmed that 3 is not cytotoxic to human cell lines at concentrations up to 10 μM. […] In order to directly assess the impacts of 3 on colibactin's DNA crosslinking activity, purified plasmid DNA was incubated with pks^+ E. coli, then subjected to gel electrophoresis under denaturing conditions.

Take `CC1(C)OB([C@@H](CC(N)=O)NC(=O)CCCc2ccccc2)OC1(C)C` [Compound 3]: the MIC in data set [1] is more than 200 µM. The “concentration that completely blocks G2/M phase cell cycle arrest” value is not above 100 nM in data set [2] (HeLa and NC101, inhibitor in the infection medium, FIG. 12A); not above 5 nM in data set [2] (HeLa and pks+ E. coli, 1-hour preincubation of inhibitor with E. coli, FIG. 4). In addition, the “cell cycle arrest phenotype of colibactin genotoxicity” value in data set [2] (HeLa cells infected with NC101, propidium iodide flow cytometry) is listed as “can block the cell cycle arrest phenotype; also recorded: prevents cell cycle arrest”. Besides, in data set [2] (Homo sapiens, HeLa cells infected with pks+ E. coli, FIG. 4, read-out: apparent IC50 for inhibition of G2/M-phase arrest), the IC50 is approximately 10 nM. In the data set with HeLa cells, the “concentration without cytotoxicity to human cell lines” value is more than 10 µM. Further, the DNA crosslinking activity entry in data set [3] is on record as “can suppress DNA crosslinking activity”.
